Experimental findings from ChEMBL document CHEMBL1154363, “Heterocyclic 1,7-disubstituted indole sulfonamides are potent and selective human EP3 receptor antagonists” (Bioorg Med Chem Lett, 2009) are described below.

pIC50: −log10 of the molar value. Activity calls are given as the source filed them. The rule behind the calls is not given here.

Data set [1] deals with T1, Prostaglandin E2 receptor EP3 subtype (Homo sapiens) (UniProt P43115).
T1 sequence (whole entry): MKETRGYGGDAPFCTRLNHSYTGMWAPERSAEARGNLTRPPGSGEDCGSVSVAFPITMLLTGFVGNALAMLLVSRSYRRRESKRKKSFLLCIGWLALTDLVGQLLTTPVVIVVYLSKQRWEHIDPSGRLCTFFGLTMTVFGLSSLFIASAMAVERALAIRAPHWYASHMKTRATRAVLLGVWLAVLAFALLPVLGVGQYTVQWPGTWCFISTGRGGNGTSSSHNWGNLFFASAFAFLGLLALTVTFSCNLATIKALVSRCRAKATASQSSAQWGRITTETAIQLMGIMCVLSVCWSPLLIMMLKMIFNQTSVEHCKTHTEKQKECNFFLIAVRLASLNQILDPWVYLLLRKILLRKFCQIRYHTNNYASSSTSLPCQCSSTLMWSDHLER
The data set is described as follows: Antagonist activity at human EP3 receptor at 0.1 uM by FLIPR assay. Details: scale not given: the % may be the effect or the level left. Type of data set: functional.

Data set [2] concerns the target T1, Prostaglandin E2 receptor EP3 subtype (Homo sapiens). The data set is described as follows: Antagonist activity at human EP3 receptor at 1 uM by FLIPR assay. Type of data set: functional. The arrangement: scale not given: the % may be the effect or the level left.
Data set [3] has the same target. Nature of the data set: Antagonist activity at human EP3 receptor at 10 uM by FLIPR assay. It counts as functional. The arrangement: scale not given: the % may be the effect or the level left.
Data set [4] is described as follows: Protein binding in plasma by HSA-HPLC method. Type of data set: ADME, cell-free. The following applies: human, read-out: PB (converted).
Data set [5] concerns the target T2, Prostaglandin F2-alpha receptor (Homo sapiens, UniProt P43088). The data set is described as follows: Activity at FP receptor at 10 uM by FLIPR assay.
Data set [6] deals with T3, Prostaglandin E2 receptor EP4 subtype (Homo sapiens, UniProt P35408). Nature of the data set: Activity at EP4 receptor at 10 uM by FLIPR assay.
T3 sequence (P35408 whole entry): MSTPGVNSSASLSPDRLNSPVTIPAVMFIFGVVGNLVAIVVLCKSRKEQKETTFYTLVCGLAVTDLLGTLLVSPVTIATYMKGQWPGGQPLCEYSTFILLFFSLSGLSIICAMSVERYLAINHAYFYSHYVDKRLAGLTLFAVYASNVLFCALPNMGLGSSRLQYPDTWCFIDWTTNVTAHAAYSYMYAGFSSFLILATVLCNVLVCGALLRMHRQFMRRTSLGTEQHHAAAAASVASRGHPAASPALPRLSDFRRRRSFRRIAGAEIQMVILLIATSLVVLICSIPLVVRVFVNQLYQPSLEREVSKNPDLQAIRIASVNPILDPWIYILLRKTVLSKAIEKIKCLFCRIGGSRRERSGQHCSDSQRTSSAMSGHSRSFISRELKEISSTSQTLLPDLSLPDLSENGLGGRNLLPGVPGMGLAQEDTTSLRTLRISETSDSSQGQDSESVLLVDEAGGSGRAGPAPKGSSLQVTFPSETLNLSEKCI
For data set [7], the target named is T1, Prostaglandin E2 receptor EP3 subtype (Homo sapiens). Nature of the data set: Displacement of [3H]PGE2 from human EP3 receptor in presence of 10% human serum. Background: Displacement assays read how much labelled ligand stays bound in the presence of the test substance.
Data set [8] concerns the target T3, Prostaglandin E2 receptor EP4 subtype. The data set is described as follows: Activity at EP4 receptor at 1 uM by FLIPR assay.
Data set [9] deals with T4, Prostaglandin E2 receptor EP1 subtype (Homo sapiens) (UniProt P34995).
T4 sequence (whole entry): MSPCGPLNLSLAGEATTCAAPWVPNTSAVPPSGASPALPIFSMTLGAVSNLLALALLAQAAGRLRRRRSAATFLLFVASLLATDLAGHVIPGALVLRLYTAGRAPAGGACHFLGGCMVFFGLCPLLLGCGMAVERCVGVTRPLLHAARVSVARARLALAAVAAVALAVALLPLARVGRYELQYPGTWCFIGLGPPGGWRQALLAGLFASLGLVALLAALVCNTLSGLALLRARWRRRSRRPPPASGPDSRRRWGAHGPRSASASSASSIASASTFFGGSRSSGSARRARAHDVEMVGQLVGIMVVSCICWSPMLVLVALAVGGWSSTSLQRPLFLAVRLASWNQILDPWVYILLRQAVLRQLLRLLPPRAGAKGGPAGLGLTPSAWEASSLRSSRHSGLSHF
The data set is described as follows: Activity at EP1 receptor at 1 uM by FLIPR assay.

Data set [10] is described as follows: Metabolic stability in human liver microsomes assessed as compound remaining after 30 mins. Type of data set: ADME, Microsome. The following applies: read-out: Stability.
Data set [11] addresses T4, Prostaglandin E2 receptor EP1 subtype (Homo sapiens). The data set is described as follows: Activity at EP1 receptor at 10 uM by FLIPR assay.
In data set [12] the target is T5, Prostaglandin E2 receptor EP3 subtype (Homo sapiens, UniProt P43115).
T5 sequence (P43115 whole entry): T1 sequence (whole entry)
The data set is described as follows: Displacement of [3H]PGE2 from human EP3 receptor.

The target of data set [13] is T2, Prostaglandin F2-alpha receptor. The data set is described as follows: Activity at FP receptor at 1 uM by FLIPR assay.
Data set [14] addresses T6, Thromboxane A2 receptor (Homo sapiens) (UniProt P21731).
T6 sequence (whole entry): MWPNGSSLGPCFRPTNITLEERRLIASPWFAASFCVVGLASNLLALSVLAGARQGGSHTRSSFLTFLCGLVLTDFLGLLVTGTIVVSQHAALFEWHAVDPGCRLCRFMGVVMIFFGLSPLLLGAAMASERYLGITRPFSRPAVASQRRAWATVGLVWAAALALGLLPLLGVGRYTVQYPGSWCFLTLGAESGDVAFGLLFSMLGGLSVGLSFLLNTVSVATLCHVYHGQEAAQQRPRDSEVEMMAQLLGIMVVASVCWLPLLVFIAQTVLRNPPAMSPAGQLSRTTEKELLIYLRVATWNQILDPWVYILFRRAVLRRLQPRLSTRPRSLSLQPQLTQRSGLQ
The data set is described as follows: Activity at TP receptor at 0.1 uM by FLIPR assay.

The target in data set [15] is T4, Prostaglandin E2 receptor EP1 subtype (Homo sapiens). The data set is described as follows: Activity at EP1 receptor at 0.1 uM by FLIPR assay.
In data set [16] the test system is Platelet. Nature of the data set: Inhibition of PGE2/collagen-induced platelet aggregation rat platelets rich plasma. Type of data set: functional.
In data set [17] the target is T2, Prostaglandin F2-alpha receptor. Nature of the data set: Activity at FP receptor at 0.1 uM by FLIPR assay.
The target in data set [18] is T3, Prostaglandin E2 receptor EP4 subtype. The data set is described as follows: Activity at EP4 receptor at 0.1 uM by FLIPR assay.
Data set [19] deals with T6, Thromboxane A2 receptor (Homo sapiens). Nature of the data set: Activity at TP receptor at 10 uM by FLIPR assay.
Data set [20] is described as follows: Metabolic stability in rat liver microsomes assessed as compound remaining after 30 mins. The settings on record: read-out: Stability. Type of data set: ADME, Microsome. (Liver microsomes are vesicles of endoplasmic reticulum, rich in cytochrome P450 enzymes.)
Data set [21] has as its target T6, Thromboxane A2 receptor (Homo sapiens). The data set is described as follows: Activity at TP receptor at 1 uM by FLIPR assay.
Data set [22] addresses T7, Prostaglandin E2 receptor EP1 subtype (Homo sapiens, UniProt P34995).
T7 sequence (P34995 whole entry): T4 sequence (whole entry)
Nature of the data set: Binding affinity to human EP1 receptor by radioligand displacement assay.

Data set [23] has as its target T2, Prostaglandin F2-alpha receptor. Nature of the data set: Binding affinity to human FP receptor by radioligand displacement assay.
A further data set deals with Prostacyclin receptor (Homo sapiens, UniProt P43119). The data set is described as follows: Binding affinity to human IP receptor by radioligand displacement assay.
Chain of Prostacyclin receptor (P43119 whole entry): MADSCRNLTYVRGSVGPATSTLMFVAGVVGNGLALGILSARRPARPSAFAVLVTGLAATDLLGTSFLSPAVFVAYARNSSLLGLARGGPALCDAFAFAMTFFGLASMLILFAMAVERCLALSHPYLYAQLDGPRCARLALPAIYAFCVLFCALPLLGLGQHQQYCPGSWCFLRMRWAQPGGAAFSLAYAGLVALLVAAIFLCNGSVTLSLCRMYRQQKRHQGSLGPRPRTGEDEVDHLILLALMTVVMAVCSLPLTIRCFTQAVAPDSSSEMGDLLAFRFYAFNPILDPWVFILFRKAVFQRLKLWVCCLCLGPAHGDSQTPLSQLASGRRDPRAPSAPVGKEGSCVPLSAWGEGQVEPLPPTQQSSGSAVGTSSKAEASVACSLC
Data set [24] deals with Platelet. Nature of the data set: Inhibition of PGE2/collagen-induced platelet aggregation human platelets rich plasma. Type of data set: functional.
The target of data set [25] is Prostaglandin E2 receptor EP2 subtype (Homo sapiens, UniProt P43116). The data set is described as follows: Binding affinity to human EP2 receptor by radioligand displacement assay.
Chain of Prostaglandin E2 receptor EP2 subtype (P43116 whole entry): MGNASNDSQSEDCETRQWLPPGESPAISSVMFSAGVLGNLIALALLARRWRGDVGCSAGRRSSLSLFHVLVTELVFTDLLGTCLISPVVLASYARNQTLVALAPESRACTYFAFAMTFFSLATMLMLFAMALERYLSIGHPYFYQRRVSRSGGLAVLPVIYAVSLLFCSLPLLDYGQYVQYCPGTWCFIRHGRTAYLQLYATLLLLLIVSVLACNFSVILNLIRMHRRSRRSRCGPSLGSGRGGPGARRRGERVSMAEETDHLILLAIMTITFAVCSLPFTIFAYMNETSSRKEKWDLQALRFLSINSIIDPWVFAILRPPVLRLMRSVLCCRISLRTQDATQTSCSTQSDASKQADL
In data set [26] the target is T3, Prostaglandin E2 receptor EP4 subtype. The data set is described as follows: Binding affinity to human EP4 receptor by radioligand displacement assay.
For data set [27], the target named is T1, Prostaglandin E2 receptor EP3 subtype (Homo sapiens). Nature of the data set: Full displacement of [3H]PGE2 from human EP3 receptor at 20 uM.

T2 sequence (P43088 whole entry): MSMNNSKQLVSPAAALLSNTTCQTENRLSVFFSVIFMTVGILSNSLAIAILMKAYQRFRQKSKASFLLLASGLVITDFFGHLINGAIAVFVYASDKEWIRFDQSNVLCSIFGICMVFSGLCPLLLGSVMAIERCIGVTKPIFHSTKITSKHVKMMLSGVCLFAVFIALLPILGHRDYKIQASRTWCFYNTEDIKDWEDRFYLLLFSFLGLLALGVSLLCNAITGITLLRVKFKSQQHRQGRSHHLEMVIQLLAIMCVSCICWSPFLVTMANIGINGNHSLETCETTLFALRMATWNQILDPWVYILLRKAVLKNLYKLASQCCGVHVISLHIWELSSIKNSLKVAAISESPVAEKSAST

Consider `COc1ccc(Cn2cc(C)c3cc(F)cc(-c4nnc(NS(=O)(=O)c5ccc(F)c(F)c5)o4)c32)cc1`, for which the Activity in data set [1] was 35%; in data set [2] it was 99%.

On to `Cc1cn(Cc2ccc3c(c2)OCCO3)c2c(-c3nnc(NS(=O)(=O)c4ccc(F)cc4)o3)cc(F)cc12`, for which the Activity was determined as 11% in data set [1] and 48% in data set [3].

Broadly, the pIC50 is −log10 of the IC50, conventionally taken in molar units. For the compound `Cc1cn(Cc2ccc(Cl)cc2Cl)c2c(-c3nnc(NS(=O)(=O)c4ccc(Cl)c(Cl)c4)o3)cc(F)cc12`, the fraction unbound in data set [4] is 0.028. The Activity in data set [5] is -1%; in data set [6] it was -7%; in [8] it was -22%; in data set [9] it was 16%; in data set [11], 100%; in data set [13] it was -2%. Further, the Activity was 3% in data set [14]; -2% in data set [15]; -15% in data set [17]; -26% in [18]; 56% in data set [19]; 0% in data set [21]. In addition, the fold change (FC) in [7] came to 3.5. In addition, the remaining at 0.5 h was found to be 72.1% in [10] and 44.8% in data set [20]. In addition, the values for the pIC50 (in [12]; in the data set on Platelet [16]) were 8.40 and 5.54, respectively.

For `Cc1cn(Cc2ccc(Cl)cc2Cl)c2c(-c3nnc(NS(=O)(=O)c4cc(Cl)c(Cl)s4)o3)cc(F)cc12`, in data set [4], the fraction unbound was 0.002. Further, the fold change (FC) in data set [7] is 27. Besides, the remaining at 0.5 h in data set [10] worked out at 62.7%; in data set [20], 46.4%. Also, in data set [12], the negative-log IC50 (pIC50) is 8.00.

On to `Cc1cn(Cc2ccc(Cl)cc2Cl)c2c(-c3cc(NS(=O)(=O)c4cc(Cl)c(Cl)s4)no3)cc(F)cc12`, for which the fold change (FC) in data set [7] stood at 67. Moreover, the remaining at 0.5 h in data set [10] was determined as 46.8%; in [20], 57.8%. Further, the pIC50 in [12] is 8.30; in the data set with Platelet [16], 5.98.

`Cc1cn(Cc2ccc(Cl)cc2Cl)c2c(-c3cc(NS(=O)(=O)c4ccc(F)c(F)c4)no3)cc(F)cc12`: the fraction unbound in data set [4] was 0.016. Moreover, in [7], the fold change (FC) worked out at 12. Also, the remaining at 0.5 h came to 46.8% in data set [10] and 51% in data set [20]. The negative logarithm of the IC50 (pIC50) in [12] was 9.00; in [22] it was under 4.70; with Platelet [16], 5.41; in data set [23], 6.22; at Prostacyclin receptor it was under 4.70; in the data set on Platelet [24] it was 6.11. Moreover, the pIC50 was 4.70 in data set [25] and 4.73 in data set [26].

In the case of `Cc1cn(Cc2ccc(Cl)cc2Cl)c2c(-c3nnc(NS(=O)(=O)c4ccc(F)c(F)c4)o3)cc(F)cc12`, the Activity in [5] was found to be 41%; in [6] it was 32%; in [8], 26%; in [9], 30%; in [11], 100%; in [13] it was 26%. The Activity is -5% in data set [14]; -11% in data set [15]; 22% in data set [17]; 13% in data set [18]; 89% in data set [19]; 9% in data set [21]. Moreover, the fold change (FC) in [7] came out at 2.4. Also, the negative logarithm of the IC50 (pIC50) in data set [12] is 7.70; with Platelet [16], 5.57. For the same compound, the remaining at 0.5 h in data set [20] is 42.5%.

On to `Cc1cn(Cc2ccc(Cl)cc2Cl)c2c(-c3nnc(NS(=O)(=O)c4cc(F)c(F)cc4F)o3)cc(F)cc12`, for which the fraction unbound in data set [4] is 0.006. Also, the Activity in data set [5] is 64%; in data set [6] it was 84%; in data set [8], 15%; in data set [9] it was 94%; in data set [11] it was 99%; in data set [13], 21%. Besides, the Activity in [14] is 3%; in data set [15] it was 25%; in data set [17] it was 5%; in data set [18] it was 9%; in data set [19], 99%; in [21] it was 11%. For the same compound, the fold change (FC) in data set [7] came to 22. In addition, in [12], the negative logarithm of the IC50 (pIC50) is 8.70.

On to `Cc1cn(Cc2ccc(Cl)cc2Cl)c2c(-c3nnc(NC(=O)c4ccc(Cl)cc4Cl)o3)cc(F)cc12`, for which, in data set [7], the fold change (FC) is 1. The outcome in data set [27] was inactive. In data set [12], this compound showed a pIC50 of 5.88.

Take `COc1cccc(Cn2cc(C)c3cc(F)cc(-c4nnc(NS(=O)(=O)c5ccc(F)cc5)o4)c32)c1`: the Activity in data set [1] worked out at 62%; in [3], 99%.
